Results as given in patent US12167995B2, “[((1R,2S,5R)-2-isopropyl-5-methyl-cyclohexanecarbonyl)-amino]-acetic acid isopropyl ester for treatment of chronic cough” (AXALBION SA, priority 2019, dated 2024).

Columns and labels:
[1] = Clinical Trial 2: safety and tolerability in RCC patients; type: in vivo, human; settings: single 5 mg ODT
Description: Safety assessments consisted of monitoring and recording protocol-defined adverse events (AEs) and serious adverse events (SAEs); vital signs; physical examinations; clinical laboratory assessments; electrocardiograms (ECGs); and other protocol-specified tests that were deemed critical to the safety evaluation of the study drug.

[2] = tested on: refractory chronic cough (RCC); assay: Clinical Trial 2: cough severity and associated sensations, 100 mm VAS; type: in vivo, human
Description: Cough Severity was scored on a 100 mm Visual Analog Scale (VAS) at the specified time points. The patient was asked to indicate their assessment by marking (e.g., with a pen) a position along a 100 mm line between two extremes, e.g., “no cough” and “worst cough”. Urge-to-cough was scored on a 100 mm VAS at the specified time points. Throat irritation was scored on a 100 mm VAS at the specified time points. Throat cooling was scored on a 100 mm VAS at the specified time points. At least 24 hours after the Baseline Visit cough monitor has been attached on Day 0, and preferably before 10 am, the following activities were performed by clinic staff (not specified by the order below): • Remove the Baseline Visit cough monitor. • Update medical history. • Record all concomitant medication use. • Inclusion/exclusion criteria review. • If all inclusion and exclusion criteria were met, enroll patient into study. • Vital signs: before dose and 4 hours after dose. • 12-lead ECG (before dose). • Laboratory tests: • Urine drugs-of-abuse testing. • Pharmacokinetic (PK) sample taken. • Provide subject with VAS diary and instruct them to complete VAS assessments at +5 and +6 hours at home (see below). • Before dosing, attach and activate Treatment Visit cough monitor. • Administer the dose of the study drug (preferably before 10 am). • Cough severity VAS assessment: • Prior to dose: • −30 minutes. • After dose: • +1, +2, +3, +4, +5, +6 hours. • Urge-to-cough VAS assessment: • Prior to dose: • −30 minutes. • After dose: • +1, +2, +3, +4, +5, +6 hours. • Throat irritancy VAS assessment: • Prior to dose: • −30 minutes. • After dose: • +1, +2, +3, +4, +5, +6 hours. • Throat cooling VAS assessment: • Prior to dose: • −30 minutes. • After dose: • +1, +2, +3, +4, +5, +6 hours. • GRCS assessment at 4 hours after dose. • Schedule Follow-Up Visit. • Once the Investigator confirmed it was safe to do so, the subject could leave the unit after the assessments 4 hours after dose were complete. At least 24 hours after the Treatment Visit cough monitor has been attached (on Day 1), the following activities were performed by clinic staff (not specified by the order below): • Remove the Treatment Visit cough monitor. • Collect and review the VAS diary for completeness. • Overall impression of the treatment day (24 hours) with: • Cough severity VAS assessment. • Urge-to-cough VAS assessment. • Throat irritancy VAS assessment. • Throat cooling VAS assessment. • GRCS assessment. • Record all adverse events. • Record all concomitant medication use. • Schedule End of Study visit. End of Study Visit (Visit 5): The following procedures and evaluations were performed at the clinic between Day 7 and 14. At this visit, the following procedures and assessments were performed by clinic staff (not specified by the order below): • Cough severity VAS assessment. • Urge-to-cough VAS assessment. • Throat irritancy VAS assessment. • GRCS assessment. • Vital signs. • Weight. • Physical examination. • 12-lead ECG. • Laboratory tests: • Hematology. • Chemistry. • Urinalysis. • Urine pregnancy test for females of childbearing potential. • Record all adverse events. • Record all concomitant medication use.

CC(C)OC(=O)CNC(=O)[C@@H]1C[C@H](C)CC[C@H]1C(C)C [AX-8, [((1R,2S,5R)-2-isopropyl-5-methyl-cyclohexanecarbonyl)-amino]-acetic acid isopropyl ester]
compound-related adverse effects [1]: No compound-related adverse effects were observed | Urge-to-Cough VAS, Median, Follow-Up (Visit 4) ([2]; >24-hour period after treatment, n=11, Screening 51.5): 46.0 mm | Throat Irritation VAS, Median, Follow-Up (Visit 4) ([2]; >24-hour period after treatment, n=11, Screening 55.0): 9.0 mm | Cough Severity VAS, Median, Follow-Up (Visit 4) ([2]; >24-hour period after treatment, n=11, Screening 61.5): 47.0 mm | Cough Severity VAS, Median, End of Study (Visit 5) ([2]; Day 7 to 14, n=11): 64.0 mm | Throat Irritation VAS, Median, End of Study (Visit 5) ([2]; Day 7 to 14, n=11): 47.0 mm | Urge-to-Cough VAS, Median, End of Study (Visit 5) ([2]; Day 7 to 14, n=11): 57.0 mm | time of apparent maximum improvement in urge-to-cough ([2]; FIG. 8): about 3 hours | throat cooling VAS time course ([2]; FIG. 10): increase only at 30 minutes | cough severity VAS time course ([2]; hourly for 6 hours after treatment, FIG. 7): reduction from the first hour that persisted for the 6 hours of monitoring | urge-to-cough VAS time course ([2]; hourly for 6 hours after treatment, FIG. 8): improvement from the first hour that persisted for the 6 hours of monitoring | throat irritation VAS time course ([2]; hourly for 6 hours after treatment, FIG. 9, baseline lower on treatment day): improvement from the first hour that persisted for the 6 hours of monitoring
